According to patent US7408024B2, “Somatostatin antagonists” (The Administrators of the Tulane Educational Fund, priority 2001, dated 2008):
Where a SMILES comes first, the peptide text is derived from it. Bridges are numbered along the chain shown (N, C = ends). [ ]: non-standard residue; d: D form. Phe(4-Cl) = N[C@@H](Cc1ccc(Cl)cc1)C(=O)O; dNMeW = CN[C@H](Cc1c[nH]c2ccccc12)C(=O)O; 2Nal = N[C@@H](Cc1ccc2ccccc2c1)C(=O)O; 3Pal = N[C@@H](Cc1cccnc1)C(=O)O; NMeK = CN[C@@H](CCCCN)C(=O)O

Columns and labels:
[1] = biological target: T1, hsst1 (Homo sapiens, UniProt P30872); experiment: Radioligand binding, cloned human sst1 receptor (CHO-K1 membranes); settings: [125I]Tyr11-SRIF, CHO-K1 cell membranes; single values = one binding experiment; read-out: K1 ± SEM hsst1
T1 construct: each containing the entire coding region of the full-length receptors; expressed in transfected cells
Text: (§1) The genomic clones containing the human somatostatin receptors (hsstr1-5) (Yamada, Y., et al. al., Proc. Natl. Acad. Sci. USA. 1992, 89, 251-255; Yasuda, K., et al., J. Biol. Chem. 1992, 267, 20422-20428; Yamada, Y., et al., Mol. Pharmacol. 1992, 42, 2136-2142; Rohrer, L., et al., Proc. Natl. Acad. Sci. USA. 1993, 90, 4196-4200.), were kindly provided by Dr. Graeme I. Bell (University of Chicago). The hsstr1, hsstr2, hsstr3, hsstr4 and hsstr5 cDNAs were isolated as a 1.5-kb PstI-XmnI fragment, 1.7-kb BamHI-HindIII fragment, 2.0-kb NcoI-HindIII fragment, 1.4-kb NheI-NdeI fragment, and a 1.2-kb HindIII-XbaI fragment, respectively, each containing the entire coding region of the full-length receptors. These fragments were independently subdloned into the corresponding restriction endonuclease sites in the mammalian expression vector pCMV5, downstream from the human cytomegalovirus (CMV) promoter, to produce the expression plasmids pCMV5/hsstr1, pCMV5/hsstr2, pCMV5/hsstr3, pCMV5/hsstr4 and pCMV5/hsstr5. For transfection into CHO-K1 cells, a plasmid, pRSV-neo (American Type Culture Collection, Rockville, Md.), carrying the neomycin mammalian cell selectable marker was added.
(§2) Transfections were performed by the calcium phosphate method. CHO-K1 cells are maintained in α-minimum essential medium (α-MEM; Gibco) supplemented with 10% fetal calf serum and transfected with each of the expression plasmids using calcium phosphate precipitation. Clones that had inherited the expression plasmid were selected in α-MEM supplemented with 500 μg mL^−1 of geneticin (G418; Gibco). Independent CHO-K1 clones were picked by glass-ring cloning and expanded in culture in the selective media. Membranes were prepared from the isolated clones and hsstr expression was initially assessed for binding with [^125I]Tyr^11-SRIF and [^125]IMK-678 (for sstr2).
(§3) Cell membranes of the 5 receptor types were obtained from homogenates (Polytron setting 6, 15 sec) of the corresponding CHO-K1 cells, in ice-cold Tris-HCl (50 mM) and centrifuged (39000 g, 10 min×2), with an intermediate resuspension in fresh buffer. The final pellets are resuspended in Tris-HCl (10 mM) for assay. Aliquots of the membranes are incubated (30 min at 37° C.) with 0.05 nM [^125I]Tyr^11-SRIF (types 1,3,4,5) or [^125I]MK-678 (type 2) in 50 mM HEPES (pH 7.4) containing BSA (10 mg mL^−1); MgCl2 (5 mM), Trasylol (200 kIU mL^−1), bacitracin (0.02 mg mL^−1), and phenylmethanesulfonyl fluoride (0.02 mg mL^−1). The final assay volume is 0.3 mL and incubations are terminated by rapid filtration through GF/C filters pre-soaked in 0.3% poly(ethylenimine) using a Brandel rapid filtration module. Each tube and filter is then washed with aliquots of cold buffer (3×5 mL).
(§4) Specific binding is. defined as the total radioligand bound minus that bound in the presence of 1.0 μM SRIF.

[2] = biological target: T2, hsst5 (Homo sapiens, UniProt P35346); experiment: Radioligand binding, cloned human sst5 receptor (CHO-K1 membranes); settings: [125I]Tyr11-SRIF, CHO-K1 cell membranes; single values = one binding experiment; read-out: K1 ± SEM hsst5
T2 construct: each containing the entire coding region of the full-length receptors; expressed in transfected cells
Text: as §1, §2, §3, §4

[3] = tested on: SRIF inhibition of GH release in rat anterior pituitary cells; type: cell-based
Method: Anterior pituitaries from adult male rats were collected and dispersed by a previously described trypsin/DNase method. (Murphy, W. A.; Taylor, J.; Moreau, J.-P. and Coy, D. […] Sigma) and nystatin (10,000 U mL^−1; Gibco). The cells were randomly plated at a density of approximately 200,000 cells/well (Costar cluster 24; Rochester Scientific Co., Rochester, N.Y.). The plated cells were maintained in the above Dulbecco's medium in a humidified atmosphere of 95% air/5% CO2 at 37° C. for 4-6 days. In preparation for a hormone challenge, the cells were washed with medium 199 (Gibco, 3×1 mL). […] Sigma Chemical Co.). […] After 3 h incubation in an air/carbon dioxide atmosphere (95/5%, 3 h at 37° C.), the medium was removed and stored at −20° C. until assayed for hormone content. Growth hormone in media was measured by a standard double antibody RIA using components generously supplied by Dr. A. F. Parlow at the National Hormone and Pituitary Program (NHHP) Torrance, Calif.

[4] = biological target: T3, hsst4 (Homo sapiens, UniProt P31391); experiment: Radioligand binding, cloned human sst4 receptor (CHO-K1 membranes); settings: [125I]Tyr11-SRIF, CHO-K1 cell membranes; single values = one binding experiment; read-out: K1 ± SEM hsst4
T3 construct: each containing the entire coding region of the full-length receptors; expressed in transfected cells
Text: as §1, §2, §3, §4

[5] = biological target: T4, hsst3 (Homo sapiens, UniProt P32745); experiment: Radioligand binding, cloned human sst3 receptor (CHO-K1 membranes); settings: [125I]Tyr11-SRIF, CHO-K1 cell membranes; single values = one binding experiment; read-out: K1 ± SEM hsst3
T4 construct: each containing the entire coding region of the full-length receptors; expressed in transfected cells
Text: as §1, §2, §3, §4

[6] = biological target: T5, hsst2 (Homo sapiens, UniProt P30874); experiment: Radioligand binding, cloned human sst2 receptor (CHO-K1 membranes); settings: [125I]MK-678, CHO-K1 cell membranes; single values = one binding experiment; read-out: K1 ± SEM hsst2
T5 construct: each containing the entire coding region of the full-length receptors; expressed in transfected cells
Text: as §1, §2, §3, §4

T2 sequence (P35346 whole entry): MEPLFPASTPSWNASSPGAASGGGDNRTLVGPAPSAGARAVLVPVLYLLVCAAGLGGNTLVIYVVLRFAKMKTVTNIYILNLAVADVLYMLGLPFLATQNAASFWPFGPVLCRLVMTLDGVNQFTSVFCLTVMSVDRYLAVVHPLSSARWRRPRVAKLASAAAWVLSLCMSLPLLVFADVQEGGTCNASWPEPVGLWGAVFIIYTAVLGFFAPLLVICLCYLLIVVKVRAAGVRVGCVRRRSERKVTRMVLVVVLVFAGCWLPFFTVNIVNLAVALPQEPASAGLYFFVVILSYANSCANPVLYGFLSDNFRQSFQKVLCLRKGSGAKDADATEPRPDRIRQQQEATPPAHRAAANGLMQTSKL
T4 sequence (P32745 whole entry): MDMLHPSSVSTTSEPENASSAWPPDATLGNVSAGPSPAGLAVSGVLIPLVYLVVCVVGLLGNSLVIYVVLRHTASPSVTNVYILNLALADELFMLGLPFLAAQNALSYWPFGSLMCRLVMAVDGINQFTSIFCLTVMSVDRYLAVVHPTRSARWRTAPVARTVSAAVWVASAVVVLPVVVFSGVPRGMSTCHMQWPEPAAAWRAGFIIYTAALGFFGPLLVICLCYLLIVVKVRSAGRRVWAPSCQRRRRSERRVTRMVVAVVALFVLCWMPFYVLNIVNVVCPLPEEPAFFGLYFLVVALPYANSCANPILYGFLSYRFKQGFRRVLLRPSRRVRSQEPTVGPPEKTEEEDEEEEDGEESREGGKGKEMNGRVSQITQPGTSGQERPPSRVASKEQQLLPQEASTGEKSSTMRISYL
T1 sequence (P30872 whole entry): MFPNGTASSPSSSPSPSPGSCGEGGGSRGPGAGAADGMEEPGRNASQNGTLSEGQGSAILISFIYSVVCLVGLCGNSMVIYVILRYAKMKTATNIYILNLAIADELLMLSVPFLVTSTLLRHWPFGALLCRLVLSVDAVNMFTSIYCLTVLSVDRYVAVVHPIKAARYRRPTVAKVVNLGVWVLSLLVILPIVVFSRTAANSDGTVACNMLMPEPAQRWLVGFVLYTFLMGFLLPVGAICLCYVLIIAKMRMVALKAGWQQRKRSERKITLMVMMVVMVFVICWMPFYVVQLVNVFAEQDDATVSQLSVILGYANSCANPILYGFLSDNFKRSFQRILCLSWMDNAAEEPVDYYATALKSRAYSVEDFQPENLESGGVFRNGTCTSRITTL
T3 sequence (P31391 whole entry): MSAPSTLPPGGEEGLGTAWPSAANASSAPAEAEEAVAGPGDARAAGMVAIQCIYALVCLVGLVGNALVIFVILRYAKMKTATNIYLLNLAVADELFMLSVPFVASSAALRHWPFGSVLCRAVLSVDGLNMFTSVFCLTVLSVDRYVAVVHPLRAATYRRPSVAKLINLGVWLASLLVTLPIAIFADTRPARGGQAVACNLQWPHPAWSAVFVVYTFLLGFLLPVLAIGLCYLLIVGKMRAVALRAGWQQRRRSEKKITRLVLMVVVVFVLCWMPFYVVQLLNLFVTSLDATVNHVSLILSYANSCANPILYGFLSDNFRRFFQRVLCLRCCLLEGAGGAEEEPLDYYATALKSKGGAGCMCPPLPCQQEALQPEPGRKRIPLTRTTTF
T5 sequence (P30874 whole entry): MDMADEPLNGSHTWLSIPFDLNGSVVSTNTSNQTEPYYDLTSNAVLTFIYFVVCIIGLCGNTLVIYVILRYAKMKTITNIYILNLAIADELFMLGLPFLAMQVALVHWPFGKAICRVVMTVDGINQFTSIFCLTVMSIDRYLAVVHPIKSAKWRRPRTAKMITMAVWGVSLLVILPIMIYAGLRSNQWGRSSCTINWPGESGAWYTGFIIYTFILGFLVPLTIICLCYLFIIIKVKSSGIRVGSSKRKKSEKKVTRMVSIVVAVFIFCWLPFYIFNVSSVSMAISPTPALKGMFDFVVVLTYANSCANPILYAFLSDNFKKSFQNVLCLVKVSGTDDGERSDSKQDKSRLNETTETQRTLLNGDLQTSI

| Ki [1] [nM] | Ki [2] [nM] | IC50 [3] [nM] | Ki [4] [nM] | Ki [5] [nM] | Ki [6] [nM] | Structure (SMILES) |
| --- | --- | --- | --- | --- | --- | --- |
| 1000 | 112 ± 19 | 2.5 ± 0.2 | 1000 | 140 ± 10.4 | 9.33 ± 0.62 | C[C@@H](O)[C@@H]1NC(=O)[C@H](CCCCN)N(C)C(=O)[C@@H](Cc2c[nH]c3ccccc23)N(C)C(=O)[C@H](Cc2cccnc2)NC(=O)[C@H](NC(=O)[C@@H](N)Cc2ccc(Cl)cc2)CSSC[C@@H](C(=O)N[C@@H](Cc2ccc3ccccc3c2)C(N)=O)NC1=O [Peptide 11, Cpa-cyclo(DCys-3-Pal-NMeDTrp-NMeLys-Thr-Cys)-2-Nal-NH2] (H-[Phe(4-Cl)][dC][3Pal][dNMeW][NMeK]TC[2Nal]-NH2; disulfide 2-7) |
| 1000 | 40.1 ± 18.8 | 7.8 ± 2.7 | 1000 | 330 ± 126 | 36 ± 7.6 | CN[C@@H](Cc1ccc(Cl)cc1)C(=O)N[C@@H]1CSSC[C@@H](C(=O)N[C@@H](Cc2ccc3ccccc3c2)C(N)=O)NC(=O)[C@H]([C@@H](C)O)NC(=O)[C@H](CCCCN)NC(=O)[C@@H](Cc2c[nH]c3ccccc23)NC(=O)[C@H](Cc2cccnc2)NC1=O [Peptide 1, NmeCpa-cyclo(DCys-3-Pal-DTrp-Lys-Thr-Cys)-2-Nal-NH2] |
